We go through 1 compound from patent US20170266213A1, “USE OF BETA-NICOTINAMIDE MONONUCLEOTIDE IN PREPARATION OF ANTI-AGING DRUGS OR HEALTH-CARE PRODUCTS” (BONTAC BIO-ENGINEERING (SHENZHEN) CO., LTD, priority 2015, published 2017).

Molecules are shown by their SMILES.

This experiment deals with Kunming mice (aged about 52 weeks). Briefly: Mouse survival test. Format: in vivo. How it is done: 1.1 Experimental material: β-nicotinamide mononucleotide (NMN)
1.2 Experimental animal: Kunming mice (aged about 52 weeks)
1.3 Administration method:
Blank group: fed on full diet;
Treatment group: fed on full diet supplemented with NMN (containing adjuvants) fully dissolved in water, where a single dose of NMN is 20 mg/Kg body weight/day;
Control group: fed on full diet supplemented with adjuvants equivalent to those in the Treatment group;
Mouse survival test: […] aged 52 weeks were assigned to two groups (that is, a blank control group and a treatment group) at random, each group having 40 animals.
Experimental method: see Function Evaluation procedures and Specification of test methods for health food—(2003 Edition, the Ministry of Health).

With `NC(=O)c1ccc[n+]([C@@H]2O[C@H](COP(=O)([O-])O)[C@@H](O)[C@H]2O)c1` [NMN, β-nicotinamide mononucleotide], the “extension of the lifespan of mice” value (NMN 20 mg/Kg body weight/day, versus blank and control groups (Table 1)) is recorded as “about 29%”. Besides, the “Morbility over 100 weeks (%)” value (aged 52 weeks at start, NMN 20 mg/Kg body weight/day in full diet, 100 weeks) amounted to 38%. Also, the “Morbility over 120 weeks (%)” value (aged 52 weeks at start, NMN 20 mg/Kg body weight/day in full diet, 120 weeks) is on record as 52%. Under “aged 52 weeks at start, NMN 20 mg/Kg body weight/day in full diet, 140 weeks”, the “Morbility over 140 weeks (%)” value was found to be 61%. The “Morbility over 160 weeks (%)” value (aged 52 weeks at start, NMN 20 mg/Kg body weight/day in full diet, 160 weeks) is 74%. The “Morbility over 180 weeks (%)” value (aged 52 weeks at start, NMN 20 mg/Kg body weight/day in full diet, 180 weeks) came to 100%. Further, for the setting “composition containing NMN”, the “effect on the lifespan of mice (in words)” value is recorded as “obviously extend the lifespan of mice”.
